Experimental data: ChEMBL document CHEMBL2062457, “Synthesis and antibacterial activity of desosamine-modified macrolide derivatives” (2012)
≈ marks a conversion by molar mass, not a printed value.

Columns and labels:
Type in all cases: functional
[1] = test system: Staphylococcus aureus; assay: Antibacterial activity against macrolide-resistant Staphylococcus aureus ATCC 33591 constitutively expressing ermA
[2] = test system: Staphylococcus aureus; assay: Antibacterial activity against macrolide-susceptible Staphylococcus aureus ATCC 29213
[3] = test system: Staphylococcus aureus; assay: Ratio of MIC for macrolide-resistant Staphylococcus aureus ATCC 33591 to MIC for macrolide-susceptible Staphylococcus aureus ATCC 29213

| SMILES | MIC [1] [µg/mL] | MIC [2] [µg/mL] | Ratio [3] |
| --- | --- | --- | --- |
| CCCCN(C)[C@H]1C[C@@H](C)O[C@@H](O[C@@H]2[C@@H](C)C(=O)[C@@H](C)C(=O)O[C@H](CC)[C@@]3(C)OC(=O)N(CCCCn4cnc(-c5cccnc5)c4)[C@@H]3[C@@H](C)C(=O)[C@H](C)C[C@@]2(C)OC)[C@@H]1O | > 256 | 0.5 (≈ 0.585 µM) |  |
| CC[C@H]1OC(=O)[C@H](C)[C@@H](O[C@H]2C[C@@](C)(OC)[C@@H](O)[C@H](C)O2)[C@H](C)[C@@H](O[C@@H]2O[C@H](C)C[C@H](NC)[C@H]2O)[C@](C)(O)C[C@@H](C)C(=O)[C@H](C)[C@@H](O)[C@]1(C)O | > 256 | 8 (≈ 11.1 µM) |  |
| CC[C@H]1OC(=O)[C@H](C)C(=O)[C@H](C)[C@@H](O[C@H]2C[C@@H](N(C)C)C[C@@H](C)O2)[C@](C)(OC)C[C@@H](C)C(=O)[C@H](C)[C@H]2N(CCCCn3cnc(-c4cccnc4)c3)C(=O)O[C@]12C | > 256 | 8 (≈ 10.1 µM) |  |
| CC[C@H]1OC(=O)[C@H](C)[C@@H](O[C@H]2C[C@@](C)(OC)[C@@H](O)[C@H](C)O2)[C@H](C)[C@@H](O[C@H]2C[C@@H](N(C)C)C[C@@H](C)O2)[C@](C)(OC)C[C@@H](C)C(=O)[C@H](C)[C@@H](O)[C@]1(C)O | > 256 | 64 (≈ 87.4 µM) |  |
| CC[C@H]1OC(=O)[C@H](C)[C@@H](O[C@H]2C[C@@](C)(OC)[C@@H](O)[C@H](C)O2)[C@H](C)[C@@H](O[C@@H]2O[C@H](C)C[C@H](N(C)C(=N)N)[C@H]2O)[C@](C)(OC)C[C@@H](C)C(=O)[C@H](C)[C@@H](O)[C@]1(C)O | > 256 | 32 (≈ 41.2 µM) |  |
| CC[C@H]1OC(=O)[C@H](C)[C@@H](O[C@H]2C[C@@](C)(OC)[C@@H](O)[C@H](C)O2)[C@H](C)[C@@H](O[C@@H]2O[C@H](C)C[C@H](NC)[C@H]2O)[C@](C)(OC)C[C@@H](C)C(=O)[C@H](C)[C@@H](O)[C@]1(C)O | > 256 | 4 (≈ 5.45 µM) |  |
| CC[C@H]1OC(=O)[C@H](C)[C@@H](O[C@H]2C[C@@](C)(OC)[C@@H](O)[C@H](C)O2)[C@H](C)[C@@H](O[C@H]2C[C@@H](N(C)C)C[C@@H](C)O2)[C@](C)(O)C[C@@H](C)C(=O)[C@H](C)[C@@H](O)[C@]1(C)O | > 256 | 64 (≈ 89.1 µM) |  |
| CC[C@H]1OC(=O)[C@H](C)C(=O)[C@H](C)[C@@H](O[C@@H]2O[C@H](C)C[C@H](N(C)C)[C@H]2O)[C@](C)(OC)C[C@@H](C)C(=O)[C@H](C)[C@H]2N(CCCCn3cnc(-c4cccnc4)c3)C(=O)O[C@]12C [TELITHROMYCIN] | > 256 | 0.08 (≈ 0.0985 µM) |  |
| CCCCN(C)[C@@H]1C[C@H](O[C@@H]2[C@@H](C)C(=O)[C@@H](C)C(=O)O[C@H](CC)[C@@]3(C)OC(=O)N(CCCCn4cnc(-c5cccnc5)c4)[C@@H]3[C@@H](C)C(=O)[C@H](C)C[C@@]2(C)OC)O[C@H](C)C1 | > 256 | 64 (≈ 76.4 µM) |  |
| CC[C@H]1OC(=O)[C@H](C)C(=O)[C@H](C)[C@@H](O[C@@H]2O[C@H](C)C[C@H](NC)[C@H]2O)[C@](C)(OC)C[C@@H](C)C(=O)[C@H](C)[C@H]2N(CCCCn3cnc(-c4cccnc4)c3)C(=O)O[C@]12C | > 256 | 16 (≈ 20.1 µM) |  |
| CC[C@H]1OC(=O)[C@H](C)C(=O)[C@H](C)[C@@H](O[C@H]2C[C@@H](N(C)C)C[C@@H](C)O2)[C@](C)(OC/C=C/c2cnc3ccccc3c2)C[C@@H](C)C(=O)[C@H](C)[C@H]2NC(=O)O[C@@]21C | > 256 | 4 (≈ 5.33 µM) |  |
| CC[C@H]1OC(=O)[C@H](C)C(=O)[C@H](C)[C@@H](O[C@@H]2O[C@H](C)C[C@H](N(C)C)[C@H]2O)[C@](C)(OCC=Cc2cnc3ccccc3c2)C[C@@H](C)C(=O)[C@H](C)[C@H]2NC(=O)O[C@@]21C [CETHROMYCIN] | > 256 | 0.0075 (≈ 0.00979 µM) | >10000 |
| CC[C@H]1OC(=O)[C@H](C)[C@@H](O[C@H]2C[C@@](C)(OC)[C@@H](O)[C@H](C)O2)[C@H](C)[C@@H](O[C@@H]2O[C@H](C)C[C@H](N(C)C)[C@H]2O)[C@](C)(O)C[C@@H](C)C(=O)[C@H](C)[C@@H](O)[C@]1(C)O [ERYTHROMYCIN] | > 256 | 0.5 (≈ 0.681 µM) |  |
